# Laboratory results reported in patent US20260242418A1, “CYCLIC PEPTIDES WITH ANTIBACTERIAL ACTIVITY AGAINST MULTIDRUG RESISTANT (MDR) PATHOGENS” (priority 2022, published 2026).
# Where two headings read alike, the source gives them in different places. Positions of bridges follow the written chain, without caps; N, C: chain ends. Non-standard residues stand in square brackets, D forms with d. Residues, ends and D or L forms follow the SMILES beside them. No end group written: not given here. dDab = NCC[C@@H](N)C(=O)O; Orn = NCCC[C@H](N)C(=O)O; Dab = NCC[C@H](N)C(=O)O
# Tests used:
# [1] = in vivo, iv; cited from earlier work
# human cells = settings: cited from earlier work
# Acinetobacter baumannii = type: cell-based
# Text: (§1) Minimum Inhibitory Concentration (MIC) of a peptide of SEQ D NO: 4 (abbreviated PLP-3) and colistin against a collection of clinically relevant and commercially available bacterial strains was obtained via broth microdilution. The protocol for antimicrobial activity determination, detailed below, consisted in a modification of Clinical & Laboratory Standards Institute (CLSI) Guidelines.
# (§2) MIC is the value defined as the lowest concentration of an antimicrobial, in these tests either PLP-3 or colistin, which inhibits the macroscopic growth of a bacterial strain after 18-22 h incubation at 37° C. The results from these assays are obtained via visual identification of the bacterial bottom at the end of the wells of the testing plate. Since the wells contain decreasing concentrations of the compounds, the final result is indicated as a concentration, MIC, expressed in μg/mL of the agent (in this case PLP-3 or colistin).
# (§3) Bacterial strains were streaked in Columbia Agar plates (Columbia Agar with 5% Sheep Blood 90 mm Stacker plates, BD) and incubated overnight at 37° C. Polypropylene round bottomed 96-well plates were filled with 50 μL/well of Mueller-Hinton Broth (MHB, CM0405, 500 g, ThermoFisher Scientific™ Oxoid™) and 50 μL of either colistin or PLP-3 (at 4× the chosen initial concentration of the test) were added to the first well of each row of the plate followed by serial dilutions up until the 10th column of the plate.
# (§4) Finally, strain inoculums were prepared by diluting 1:100 0.5 McFarland solutions in MHB. Plates were then inoculated with 50 μL of the inoculums and covered with film before 18 to 22 h incubation at 37 C.
# (§5) Three biological and three technical replicates were performed per strain.
# (§6) Broth microdilution testing of 15 strains of each species provided MIC50 and […] values (Table 4). Strains were either from clinical origin, relevant to current clinical situation, or commercially available strains belonging to the American Type Culture Collection (ATCC), namely: A. baumannii 17978 and 19606, K. pneumoniae 13883 and P. aeruginosa 27853.
# (§7) This panel represents an example of relevant MDR, colistin resistant and colistin susceptible strains from which to compare results. The minimum inhibitory concentration (MIC) is the lowest concentration of a chemical, usually a drug, which prevents visible growth of a bacterium or bacteria. MIC50 represents the antimicrobial concentration value that inhibits the growth of 50% of the bacterial strains and […] of each species from the tested panel of strains. Being colistin both a peptide and a last-resource antibiotic, it was included in these assays for comparison against a commercially available antibiotic.
# Klebsiella pneumoniae = type: cell-based
# Text: as §1, §2, §3, §4, §5, §6, §7
# Pseudomonas aeruginosa = type: cell-based
# Text: as §1, §2, §3, §4, §5, §6, §7
# P. aeruginosa ATCC 27853 strain (commercially available from the American Type Collection Culture) was used as control by performing MICs to colistin and PLP-3 in all broth microdilution assays
# [2] = panel of 15 A. baumannii strains
# [3] = panel of 15 K. pneumoniae strains
# [4] = panel of 15 P. aeruginosa strains
compound,measurement,setting,value
"CC[C@H](C)[C@@H]1NC(=O)[C@H](Cc2c[nH]c3ccccc23)NC(=O)[C@H]([C@@H](C)O)NC(=O)[C@@H]2CCCN2C(=O)[C@H]2CCCN2C(=O)[C@H](CO)NC(=O)[C@H](C)NC(=O)[C@H](CCN)NC(=O)[C@H](CCN)NC(=O)[C@H](Cc2c[nH]c3ccccc23)NC(=O)[C@H](CCN)NC(=O)[C@@H](CCN)NC(=O)[C@H](CCCN)NC(=O)[C@H](CCN)NC1=O [Murepavadin, cyclo[Ala-Ser-D-Pro-Pro-Thr-Trp-Ile-Dab-Orn-D-Dab-Dab-Trp-Dab-Dab]] (cyclo(TWI[Dab][Orn][dDab][Dab]W[Dab][Dab]AS[dP]P))",adverse finding in phase-III clinical trials,[1],kidney damage in over half of the patients
"RGGRLCYCRRRFCVCVGR (disulfide 8-13, 6-15; listed as Sus scrofa) [PG-1]",haemolysis and toxicity against human cells,human cells,significant haemolysis and toxicity
colistin [reference compound],MIC50,Acinetobacter baumannii; [2],"0,5 μg/mL"
same,MIC90,Acinetobacter baumannii; [2],64 mg/L
same,MIC,Acinetobacter baumannii; strain 8* (MDR),0.5 mg/L
same,MIC,Acinetobacter baumannii; strain 19* (MDR),0.25 mg/L
same,MIC,Acinetobacter baumannii; strain 80* (MDR),0.5 mg/L
same,MIC,Acinetobacter baumannii; strain 174* (MDR),0.25 mg/L
same,MIC,Acinetobacter baumannii; strain 180* (MDR),0.5 mg/L
same,MIC,Acinetobacter baumannii; strain 210* (MDR),8 mg/L
same,MIC,Acinetobacter baumannii; strain 226* (MDR),0.25 mg/L
same,MIC,Acinetobacter baumannii; strain 253* (MDR),0.25 mg/L
same,MIC,Acinetobacter baumannii; strain 317,0.25 mg/L
same,MIC,Acinetobacter baumannii; strain 383,0.25 mg/L
same,MIC,Acinetobacter baumannii; strain 19606,0.5 mg/L
same,MIC,Acinetobacter baumannii; strain ATCC 17978,0.25 mg/L
same,MIC,Acinetobacter baumannii; strain CR17* (MDR),>64 mg/L
same,MIC,Acinetobacter baumannii; strain CR49,64 mg/L
same,MIC,Acinetobacter baumannii; strain CR86,64 mg/L
same,MIC50,Klebsiella pneumoniae; [3],8 mg/L
same,MIC90,Klebsiella pneumoniae; [3],>64 mg/L
same,MIC,Klebsiella pneumoniae; strain 145* (MDR),32 mg/L
same,MIC,Klebsiella pneumoniae; strain 398* (MDR),>64 mg/L
same,MIC,Klebsiella pneumoniae; strain 545,0.25 mg/L
same,MIC,Klebsiella pneumoniae; strain 674* (MDR),0.25 mg/L
same,MIC,Klebsiella pneumoniae; strain 681* (MDR),>64 mg/L
same,MIC,Klebsiella pneumoniae; strain 716* (MDR),0.5 mg/L
same,MIC,Klebsiella pneumoniae; strain 741* (MDR),0.5 mg/L
same,MIC,Klebsiella pneumoniae; strain 851* (MDR),0.5 mg/L
same,MIC,Klebsiella pneumoniae; strain 994* (MDR),>64 mg/L
same,MIC,Klebsiella pneumoniae; strain 1052* (MDR),>64 mg/L
same,MIC,Klebsiella pneumoniae; strain 1078* (MDR),64 mg/L
same,MIC,Klebsiella pneumoniae; strain 1129* (MDR),0.5 mg/L
same,MIC,Klebsiella pneumoniae; strain 1478* (MDR),>64 mg/L
same,MIC,Klebsiella pneumoniae; strain 1480* (MDR),0.25 mg/L
same,MIC,Klebsiella pneumoniae; strain ATCC 13883,1 mg/L
same,MIC50,Pseudomonas aeruginosa; [4],"0,5 μg/mL"
same,MIC90,Pseudomonas aeruginosa; [4],64 mg/L
same,MIC,Pseudomonas aeruginosa; strain 36a,≤0.125 mg/L
same,MIC,Pseudomonas aeruginosa; strain 38a,0.25 mg/L
same,MIC,Pseudomonas aeruginosa; strain ATCC 27853 (Table 2),≤0.125 mg/L
same,MIC,"Pseudomonas aeruginosa; strain ATCC 27853, control in the A. baumannii panel (Table 1)",≤0.125 mg/L
same,MIC,"Pseudomonas aeruginosa; strain ATCC 27853, control in the K. pneumoniae panel (Table 3)",0.25 mg/L
same,MIC,Pseudomonas aeruginosa; strain C1,0.5 mg/L
same,MIC,Pseudomonas aeruginosa; strain C2,1 mg/L
same,MIC,Pseudomonas aeruginosa; strain C3,0.5 mg/L
same,MIC,Pseudomonas aeruginosa; strain C4,0.5 mg/L
same,MIC,Pseudomonas aeruginosa; strain R1,>64 mg/L
same,MIC,Pseudomonas aeruginosa; strain R2,64 mg/L
same,MIC,Pseudomonas aeruginosa; strain R3* (MDR),32 mg/L
same,MIC,Pseudomonas aeruginosa; strain S1,≤0.125 mg/L
same,MIC,Pseudomonas aeruginosa; strain S2* (MDR),≤0.125 mg/L
same,MIC,Pseudomonas aeruginosa; strain S3,0.5 mg/L
same,MIC,Pseudomonas aeruginosa; strain S4,≤0.125 mg/L
same,MIC,Pseudomonas aeruginosa; strain S5,≤0.125 mg/L
